Results as given in US6579679B1, “Method for examining central nervous system diseases and method for screening remedies” (Tanabe Seiyaku Co., Ltd., priority 1998, dated 2003).

Tests used:
[1] = system: PS-2 splicing variant lacking exon 5; assay: Effect of drug on induction of expression of PS-2 splicing variants in human nerve cells under hypoxic conditions (RT-PCR, gel electrophoresis); assay type: cell-based; settings: human neuroblastoma SK-N-SH cells, low oxygen 16 hours; cycloheximide 0.2 or 1 μg/ml, N-acetyl-L-cysteine 2 or 10 μM, diphenylene iodonium chloride 5 or 20 μM; FIG. 5
[2] = system: PS-2 splicing variants (5′-terminal fragment); assay: Detection of PS-2 splicing variants in human nerve cells after β-amyloid stimulation or hydrogen peroxide addition (RT-PCR, gel electrophoresis); assay type: cell-based; settings: SK-N-SH cells; Aβ25-35 0.5 or 5 μM for 16 hours; H2O2 44 or 440 μM for 2 hours; FIG. 2
Description: After culturing human neuroblastoma SK-N-SH cells (ATCC HTB-11) in α-MEM medium (α-Minimum Essential Medium; available from GIBCO CO.) containing 10% fetal bovine serum in a 10 cm diameter culture plates at 37° C. for about 48 hours in a CO2 incubator to a confluent state, the medium was replaced with the same medium not containing fetal bovine serum followed by additional culturing for about 2 hours.
The above cultured cells were additionally cultured under the conditions (i) to (iv) indicated below (culturing was continued for an additional 16 hours under the same conditions as above for the control).
(iii) β-amyloid stimulation: Aβ25-35 (available from Sigma Co.) was added to the medium to a final concentration of 0.5 μM or 5 μM followed by incubating for 16 hours. […]
Using, the RNA (total RNA, 1 μg) obtained in section (1) above as template, this RNA was allowed to react for 1 hour at 42° C. in 0.05 ml of a buffer (0.05 M Tris-HCl, pH 8.3, 0.075 MN KCl, 0.003 M MgCl2, DTT and 0.0002 M deoxynucleotides) containing oligo dT primer (50 pmole), random oligonucleotide (5 pmole) and reverse transcriptase (available from Promega Co., Moloney leukaemia virus reverse transcriptase) (200 units) to synthesize single-strand cDNA. Using the resulting single-strand cDNA, splicing variants were detected by polymerase chain reaction (PCR) in the manner described below. […]

Row | Compound | expression of a splicing variant lacking exon 5 induced by hypoxic treatment [1] | bands not observed in the control, PCR of the 5′-terminal fragment of PS-2 (induced splicing variants) [2]
1 | CC(=O)N[C@@H](CS)C(=O)O [N-acetyl-L-cysteine] | inhibited | 
2 | C[C@@H]1C[C@@H]([C@H](O)CC2CC(=O)NC(=O)C2)C(=O)[C@@H](C)C1 [cycloheximide] | inhibited | 
3 | c1ccc2c(c1)[I+]c1ccccc1-2 [diphenylene iodonium chloride] | inhibited | 
4 | OO [hydrogen peroxide] |  | three bands not observed in the control
5 | β-amyloid: partial peptide consisting of the 25th to 35th amino acid residues of β-amyloid protein (GSNKGAIIGLM; Amyloid-beta protein 42; UniProt P05067 696-706, looked up, fragment) |  | two bands each not observed in the control
